Measurements: patent US12558428B2, “Heterobifunctional compounds and their use in treating disease” (Halda Therapeutics OpCo, Inc., priority 2024, dated 2026)
Read-outs that look alike come from different tables or passages of the source.

Assays:
Format in all cases: cell-based
[1] = test system: T-Rex 293 cells having increased expression of estrogen receptor alpha protein; experiment: Cellular growth inhibition assay, T-Rex 293 cells, (+) doxycycline; settings: T-Rex 293 cells with doxycycline (increased ERα expression), 72 hours, CellTiter-Glo, read-out: (+) Dox GI50
Method in brief: (§1)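 ERα overexpression was switched on by 3 ng/mL doxycycline in a stably transfected T-Rex 293 clone, while uninduced cells served as the comparison line. Proliferation over 72 h of compound treatment was assessed by ATP luminescence, and GI50 values came from four-parameter curves.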

[2] = test system: MCF7 cells (ATCC #HTB-22); experiment: Cellular growth inhibition assay, MCF7 cells purchased from ATCC; settings: Table 8-A, MCF7 cells purchased from ATCC, six days, CellTiter-Glo, read-out: GI50
Method in brief: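 MCF7 cells in RPMI 1640 with 10% FBS and 0.2 U/ml insulin, seeded at 1,500 cells/well (ATCC) or 225 cells/well (ECACC). Compounds added 24 h later, then 6 days at 37° C. Viability by CellTiter-Glo 2.0 luminescence. GI50 from four-parameter fit.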

[3] = test system: T-Rex 293 cells lacking increased expression of estrogen receptor alpha protein; experiment: Cellular growth inhibition assay, T-Rex 293 cells, (−) doxycycline; settings: T-Rex 293 cells without doxycycline (lacking increased ERα expression), 72 hours, CellTiter-Glo, read-out: (−) Dox GI50
Method in brief: as §1

SMILES | GI50 ([2]; Homo sapiens, MCF7, 144 h) | GI50 [2] | GI50 ([1]; T-REx-293, 72 h, Table 7-A) | GI50 ([3]; T-REx-293, 72 h, Table 7-A) | GI50 ([1]; T-REx-293, 72 h, Table 7-B) | GI50 ([3]; T-REx-293, 72 h, Table 7-B) | GI50 ([1]; Table 7-A) | GI50 ([3]; Table 7-A)
Cc1sc2c(c1C)C(c1ccc(N3CCC(CN4CCN(c5ccc(C6=C(c7ccccc7Cl)CCCc7cc(C(=O)O)ccc76)c(F)c5)CC4)CC3)cc1)=N[C@@H](Cc1ncco1)c1nnc(C)n1-2 [IV-49] | < 50 nM |  | < 50 nM | 500 to 2500 nM |  |  |  | 
Cc1sc2c(c1C)C(c1ccc(N3CC4(CC(CN5CCN(c6ccc(C7=C(c8ccccc8)CCCc8cc(O)ccc87)cc6)CC5)C4)C3)cc1)=N[C@@H](C)c1nnc(C)n1-2 [IV-50] | < 50 nM |  | < 50 nM | 500 to 2500 nM |  |  |  | 
Cc1sc2c(c1C)C(c1ccc(N3CCC(O)(CN4CCN(c5ccc(C6=C(c7cccc(Cl)c7)CCCc7cc(C(=O)O)ccc76)cc5)CC4)CC3)cc1)=N[C@@H](C)c1nnc(C)n1-2 [IV-51] | < 50 nM |  | < 50 nM | 500 to 2500 nM |  |  |  | 
Cc1sc2c(c1C)C(c1ccc(N3CCC(O)(CN4CCN(c5ccc(C6=C(c7ccc(Cl)c(Cl)c7)CCCc7cc(C(=O)O)ccc76)cc5)CC4)CC3)cc1)=N[C@@H](C)c1nnc(C)n1-2 [IV-52] | 50 to 500 nM |  | 50 to 500 nM | 500 to 2500 nM |  |  |  | 
Cc1sc2c(c1C)C(c1ccc(N3CCC(O)(CN4CCN(c5ccc(C6=C(c7cccc(Cl)c7Cl)CCCc7cc(C(=O)O)ccc76)cc5)CC4)CC3)cc1)=N[C@@H](C)c1nnc(C)n1-2 [IV-53] | < 50 nM |  | < 50 nM | 500 to 2500 nM |  |  |  | 
Cc1sc2c(c1C)C(c1ccc(N3CC(CN4CCN(CC5CN(c6ccc(C7=C(c8ccccc8Cl)CCCc8cc(C(=O)O)ccc87)cc6)C5)CC4)C3)cc1)=N[C@@H](C)c1nnc(C)n1-2 [IV-54] | < 50 nM |  | < 50 nM | 50 to 500 nM |  |  |  | 
COc1ccc(-c2sc3cc(OC)ccc3c2C(=O)c2ccc(OCCN3CCC4(CC3)CC(Oc3ccc(C5=N[C@@H](Cc6ncco6)c6nnc(C)n6-c6sc(C)c(C)c65)cc3)C4)cc2)cc1 [IV-55] | < 50 nM |  | < 50 nM | 500 to 2500 nM |  |  |  | 
Cc1sc2c(c1C)C(c1ccc(N3CC4(CCC(CN5CCC(c6ccc(C7=C(c8ccccc8Cl)CCCc8cc(C(=O)O)ccc87)cc6)CC5)CC4)C3)cc1)=N[C@@H](C)c1nnc(C)n1-2 [IV-56] | < 50 nM |  | < 50 nM | 50 to 500 nM |  |  |  | 
Cc1sc2c(c1C)C(c1ccc(N3CCC(O)(CN4CCN(c5ccc(C6=C(c7ccc(Cl)cc7)CCCc7cc(C(=O)O)ccc76)cc5)CC4)CC3)cc1)=N[C@@H](C)c1nnc(C)n1-2 [IV-57] | < 50 nM |  | < 50 nM | 500 to 2500 nM |  |  |  | 
Cc1sc2c(c1C)C(c1ccc(N3CC4(CC(CN5CCN(c6ccc(C7=C(c8ccccc8Cl)CCCc8cc(C(=O)O)ccc87)c(F)c6)CC5)C4)C3)cc1)=N[C@@H](C)c1nnc(C)n1-2 [IV-58] | < 50 nM |  | < 50 nM | 500 to 2500 nM |  |  |  | 
Cc1sc2c(c1C)C(c1ccc(N3CC4(CC(CN5CCN(c6ccc(C7=C(c8ccccc8Cl)CCCc8cc(C(=O)O)ccc87)cc6)CC5)C4)C3)cc1)=N[C@@H](C)c1nnc(C)n1-2 [IV-59] | < 50 nM |  | < 50 nM | 500 to 2500 nM |  |  |  | 
Cc1sc2c(c1C)C(c1ccc(N3CCC(O)(CN4CCN(c5ccc(C6=C(c7ccccc7Cl)CCCc7cc(C(=O)O)ccc76)c(F)c5)CC4)CC3)cc1)=N[C@@H](Cc1ncco1)c1nnc(C)n1-2 [IV-60] | < 50 nM |  | < 50 nM | 50 to 500 nM |  |  |  | 
Cc1sc2c(c1C)C(c1ccc(N3CCC(O)(CN4CCN(c5ccc(C6=C(c7ccccc7Cl)CCCc7cc(C(=O)O)ccc76)cc5)CC4)CC3)c(Cl)c1)=N[C@@H](C)c1nnc(C)n1-2 [IV-61] | < 50 nM |  | < 50 nM | 500 to 2500 nM |  |  |  | 
Cc1sc2c(c1C)C(c1ccc(C3CN(CC4CC(CN5CC(c6ccc(C7=C(c8ccccc8)CCCc8cc(C(=O)O)ccc87)cc6)C5)C4)C3)cc1)=N[C@@H](C)c1nnc(C)n1-2 (stereo partly drawn) [IV-62] | < 50 nM |  | < 50 nM | 500 to 2500 nM |  |  |  | 
Cc1sc2c(c1C)C(c1ccc(N3CCC(O)(CN4CCN(c5ccc(C6=C(c7ccccc7)CCCc7cc(B(O)O)ccc76)cc5)CC4)CC3)cc1)=N[C@@H](C)c1nnc(C)n1-2 [IV-63] | < 50 nM |  | < 50 nM | 500 to 2500 nM |  |  |  | 
Cc1cc(C2=N[C@@H](C)c3nnc(C)n3-c3sc(C)c(C)c32)ccc1N1CC(CN2CCN(CC3CN(c4ccc(C5=C(c6ccc(Cl)cc6)CCCc6cc(C(=O)O)ccc65)cc4)C3)CC2)C1 [IV-64] | < 50 nM |  | 50 to 500 nM | 500 to 2500 nM |  |  |  | 
COc1cc(N2CCN(CC3(O)CCN(c4ccc(C5=N[C@@H](C)c6nnc(C)n6-c6sc(C)c(C)c65)cc4)CC3)CC2)ccc1C1=C(c2ccccc2Cl)CCCc2cc(C(=O)O)ccc21 [IV-65] | 50 to 500 nM |  |  |  | < 50 nM | 500 to 2500 nM |  | 
COc1ccc(-c2sc3cc(OC)ccc3c2C(=O)c2ccc(OCCN3CCC(CCCCOc4ccc(C5=N[C@@H](Cc6ncco6)c6nnc(C)n6-c6sc(C)c(C)c65)cc4)CC3)cc2)cc1 [V-1] | 50 to 500 nM |  | 50 to 500 nM | 50 to 500 nM |  |  |  | 

The next lines start with results.

GI50 ([2]; Homo sapiens, MCF7, 144 h) | GI50 [2] | SMILES | GI50 ([1]; T-REx-293, 72 h, Table 7-A) | GI50 ([3]; T-REx-293, 72 h, Table 7-A) | GI50 ([1]; T-REx-293, 72 h, Table 7-B) | GI50 ([3]; T-REx-293, 72 h, Table 7-B) | GI50 ([1]; Table 7-A) | GI50 ([3]; Table 7-A)
 | 50 to 500 nM | COc1ccc(-c2sc3cc(OC)ccc3c2C(=O)c2ccc(OCCN3CCC4(CC3)CC(Oc3ccc(C5=N[C@@H](Cc6ncco6)c6nnc(C)n6-c6sc(C)c(C)c65)cc3)C4)cc2)cc1 [V-2] |  |  |  |  | 50 to 500 nM | 500 to 2500 nM
50 to 500 nM |  | COc1ccc(-c2sc3cc(OC)ccc3c2C(=O)c2ccc(OCCN3CCC(CCOc4ccc(C5=N[C@@H](Cc6ncco6)c6nnc(C)n6-c6sc(C)c(C)c65)cc4)CC3)cc2)cc1 [V-3] | 50 to 500 nM | 50 to 500 nM |  |  |  | 
50 to 500 nM |  | CC1=C(c2c(F)cc(F)cc2F)[C@@H](c2ccc(OCCN3CCCC4(CCN(c5ccc(C6=N[C@@H](C)c7nnc(C)n7-c7sc(C)c(C)c76)cc5)CC4)C3)cc2)Oc2ccc(O)cc21 [V-4] | 500 to 2500 nM | 500 to 2500 nM |  |  |  | 
50 to 500 nM |  | CC1=C(c2c(F)cc(F)cc2F)[C@H](c2ccc(OCCN3CCCC4(CCN(c5ccc(C6=N[C@@H](C)c7nnc(C)n7-c7sc(C)c(C)c76)cc5)CC4)C3)cc2)Oc2ccc(O)cc21 [V-5] | 50 to 500 nM | 500 to 2500 nM |  |  |  | 
50 to 500 nM |  | CC1=C(c2c(F)cc(F)cc2F)C(c2ccc(OCCN3CCCN(c4ccc(C5=N[C@@H](C)c6nnc(C)n6-c6sc(C)c(C)c65)cc4)CC3)cc2)Oc2ccc(O)cc21 (stereo partly drawn) [V-6] | 50 to 500 nM | 500 to 2500 nM |  |  |  | 
50 to 500 nM |  | CC1=C(c2c(F)cc(F)cc2F)[C@H](c2ccc(OCCN3CCC[C@]4(CCN(c5ccc(C6=N[C@@H](C)c7nnc(C)n7-c7sc(C)c(C)c76)cc5)C4)C3)cc2)Oc2ccc(O)cc21 [V-7] | < 50 nM | 50 to 500 nM |  |  |  | 
50 to 500 nM |  | CC1=C(c2c(F)cc(F)cc2F)[C@H](c2ccc(OCCN3CCC[C@@]4(CCN(c5ccc(C6=N[C@@H](C)c7nnc(C)n7-c7sc(C)c(C)c76)cc5)C4)C3)cc2)Oc2ccc(O)cc21 [V-8] | < 50 nM | 500 to 2500 nM |  |  |  | 
50 to 500 nM |  | CC1=C(c2c(F)cc(F)cc2F)[C@@H](c2ccc(OCCN3CCC[C@]4(CCN(c5ccc(C6=N[C@@H](C)c7nnc(C)n7-c7sc(C)c(C)c76)cc5)C4)C3)cc2)Oc2ccc(O)cc21 [V-9] | > 2500 nM | 500 to 2500 nM |  |  |  | 
500 to 2500 nM |  | CC1=C(c2c(F)cc(F)cc2F)[C@@H](c2ccc(OCCN3CCC[C@@]4(CCN(c5ccc(C6=N[C@@H](C)c7nnc(C)n7-c7sc(C)c(C)c76)cc5)C4)C3)cc2)Oc2ccc(O)cc21 [V-10] | 500 to 2500 nM | 500 to 2500 nM |  |  |  | 
50 to 500 nM |  | CC1=C(c2c(F)cc(F)cc2F)C(c2ccc(N3CCN(CC4CCN(c5ccc(C6=N[C@@H](C)c7nnc(C)n7-c7sc(C)c(C)c76)cc5)CC4)CC3)cc2)Oc2ccc(O)cc21 (stereo partly drawn) [V-11] | 50 to 500 nM | 500 to 2500 nM |  |  |  | 
50 to 500 nM |  | CC1=C(c2c(F)cc(F)cc2F)[C@H](c2ccc(C3CCN(CC4CCN(c5ccc(C6=N[C@@H](C)c7nnc(C)n7-c7sc(C)c(C)c76)cc5)CC4)CC3)cc2)Oc2ccc(O)cc21 [V-12] | < 50 nM | 50 to 500 nM |  |  |  | 
50 to 500 nM |  | CC1=C(c2c(F)cc(F)cc2F)[C@@H](c2ccc(C3CCN(CC4CCN(c5ccc(C6=N[C@@H](C)c7nnc(C)n7-c7sc(C)c(C)c76)cc5)CC4)CC3)cc2)Oc2ccc(O)cc21 [V-13] | 50 to 500 nM | 50 to 500 nM |  |  |  | 
50 to 500 nM |  | CC1=C(c2c(F)cc(F)cc2F)[C@@H](c2ccc(N3CCN(C(=O)C4CCN(c5ccc(C6=N[C@@H](C)c7nnc(C)n7-c7sc(C)c(C)c76)cc5)CC4)CC3)cc2)Oc2ccc(O)cc21 [V-14] | 50 to 500 nM | 500 to 2500 nM |  |  |  | 
50 to 500 nM |  | CC1=C(c2c(F)cc(F)cc2F)[C@H](c2ccc(N3CCN(C(=O)C4CCN(c5ccc(C6=N[C@@H](C)c7nnc(C)n7-c7sc(C)c(C)c76)cc5)CC4)CC3)cc2)Oc2ccc(O)cc21 [V-15] | < 50 nM | 50 to 500 nM |  |  |  | 
50 to 500 nM |  | CC1=C(c2c(F)cc(F)cc2F)C(c2ccc(OCCN3CCC4(CC3)CCN(c3ccc(C5=N[C@@H](C)c6nnc(C)n6-c6sc(C)c(C)c65)cc3)C4)cc2)Oc2ccc(O)cc21 (stereo partly drawn) [V-16] | 500 to 2500 nM | 500 to 2500 nM |  |  |  | 
